Results on 1 molecule are retold here after patent publication US20220409577A1, “INTRATUMORAL ADMINISTRATION OF ASCORBIC ACID AND QUINONE COMPOUNDS FOR TUMOR TREATMENT” (IC-MedTech Corp., priority 2021, published 2022).

Molecules are shown by their SMILES.

For the series, the system named is Glioblastoma cells (GS9L). Put plainly: Antitumor activity in a glioblastoma xenograft mouse model (GS9L), intracranial treatment. In kind it is in vivo, Balb/c nude mice. Particulars: glioblastoma-bearing mice; single intracranial injection on Day 4; TMZ 4 mg/kg; L-ascorbic acid 1.4 or 7 mg/kg + menadione 14 or 70 μg/kg, then oral L-ascorbic acid 15 g/L and menadione 150 mg/L in water daily.

Description: Six-week-old male Balb/c nude mice were maintained in specific pathogen-free conditions. Glioblastoma cells (GS9L) were cultured in DMEM supplemented with 10% FBS, penicillin (100 U/mL), and streptomycin (100 mg/L) at 37° C. in a humidified atmosphere containing 5% CO2. After deep anesthesia, the mice were positioned in a stereotactic frame. A small craniectomy was performed at 2-3 mm from the midline and 1 mm anterior to the coronal suture. The glioblastoma cells (5×10^5 cells in 5 μL) were stereotactically injected into the brain parenchyma at a depth of 3 mm on Day 1 using an automated injector.
Vitamin C (L-ascorbic acid) was dissolved in PBS at 10 mM (pH 7.4). Menadione and temozolomide (TMZ) were each dissolved in DMSO at 10 mM as a stock solution and diluted in PBS when in use. The final concentration of DMSO was below 1%. […] The glioblastoma-bearing mice were analyzed on Days 4, 7, 14, 21, and 28 (i.e., 0, 3, 10, 17, and 24 days after drug administration) by MRI to determine the size of the glioblastoma. […]

Take `Cn1nnc2c(C(N)=O)ncn2c1=O` [TMZ, temozolomide]: the “side-effects (e.g., fever, tetraplegia, or convulsions)” value is on record as “experienced side-effects (e.g., fever, tetraplegia, or convulsions)”.
